Data published in patent publication US20110003751A1, “Novel Immunoregulatory Peptides, Compositions and Uses Thereof” (priority 2007, published 2011).

System: CFU-S regeneration in the bone marrow of 1-Gy irradiated mice
Assay: Stimulation of CFU-S regeneration in bone marrow of 1-Gy irradiated mice (spleen colony count)
Format: in vivo
Procedure: Test animals were irradiated with ^60Co gamma-rays at a dose rate of 0.8 Gy per min. Bone marrow recipients were irradiated with a dose of 8 Gy; donors were irradiated with a dose of […]. The suspension of bone marrow cells of intact animals was irradiated with 1 Gy, 5-10 min prior to injection to lethally irradiated recipients.
Stimulation of CFU-S regeneration in the bone marrow of 1-Gy irradiated mice was studied with different routes of administration of the peptides.
For this purpose, at least 5 mice from each group were killed and their bone marrow was obtained. Cell suspension was prepared and injected to lethally irradiated mice. After 9 days, spleen colonies were counted to determine the CFU-S content in 1-Gy irradiated donors who received the peptide.

[1] = per os (oral gavage), 100 ug/kg, 30 min after injection of bone marrow suspension, average of two tests
[2] = intraperitoneally, 100 ug/kg, 30 min after injection of bone marrow suspension, average of two tests

| Substance | Colony count [1] | Activity % (per os, 100 ug/kg) [%] | Stimulation index (per os, 100 ug/kg) | % stimulation (IP, 10 ug/kg) [%] | Colony count (IP, 10 ug/kg) | % stimulation (IP, 100 ug/kg (Table 4)) [%] | Colony count (IP, 100 ug/kg (Table 4)) | % stimulation (IP, 1000 ug/kg) [%] | Colony count (IP, 1000 ug/kg) | Activity % (intraperitoneally, 100 ug/kg) [%] | Stimulation index (intraperitoneally, 100 ug/kg) | Colony count [2] | % stimulation (per/os, 100 ug/kg (Table 4)) [%] | Colony count (per/os, 100 ug/kg (Table 4)) | % stimulation (per/os, 1000 ug/kg) [%] | Colony count (per/os, 1000 ug/kg) | % stimulation (per/os, 10 ug/kg) [%] | Colony count (per/os, 10 ug/kg) |
| --- | --- | --- | --- | --- | --- | --- | --- | --- | --- | --- | --- | --- | --- | --- | --- | --- | --- | --- |
| H-L-Ile-D-Glu-D-Trp-OH [reference compound] | 5.8 ± 0.3 | 0 | 0 | – | – | – | – | – | – | – | – | – | – | – | – | – | – | – |
| H-L-Ile-L-Glu-L-Trp-OH [reference compound] | 5.6 ± 0.5 | 0 | 0 | 82 | 9.7 ± 0.4 | 81 | 9.6 ± 0.7 | 100 | 11.8 ± 00.9 | 80 | 0.8 | 8.2 ± 0.5 | 0 | 6.7 ± 0.5 | 0 | 6.1 ± 00.3 | – | – |
| H-L-Ile-γ-Glu-L-Trp-OH | 8.6 ± 0.7 | 83 | 0.8 | 64 | 7.6 ± 0.7 | 69 | 8.2 ± 00.4 | 87 | 10.4 ± 00.6 | 84 | 0.8 | 8.6 ± 0.7 | 70 | 8.3 ± 0.4 | 90 | 10.7 ± 00.8 | 0 | 6.9 ± 0.7 |
| H-L-Leu-L-Glu-L-Trp-OH [reference compound] | 6.2 ± 0.3 | 0 | 0 | – | – | – | – | – | – | 74 | 0.7 | 7.6 ± 0.7 | – | – | – | – | – | – |
| H-L-Leu-L-γ-Glu-L-Trp-OH | 6.7 ± 0.7 | 67 | 0.7 | – | – | – | – | – | – | 69 | 0.7 | 6.9 ± 0.6 | – | – | – | – | – | – |
| H-L-Trp-L-Glu-L-Ile-OH [reference compound] | 5.9 ± 0.8 | 0 | 0 | – | – | – | – | – | – | 79 | 0.8 | 8.1 ± 1.0 | – | – | – | – | – | – |
| H-L-γ-Glu-D-Trp-L-Ile-OH | 6.8 ± 0.5 | 66 | 0.7 | – | – | – | – | – | – | 61 | 0.6 | 6.2 ± 0.5 | – | – | – | – | – | – |
| H-L-γ-Glu-L-Trp-L-Ile-OH | 7.7 ± 0.6 | 75 | 0.7 | – | – | – | – | – | – | 73 | 0.7 | 7.5 ± 0.5 | – | – | – | – | – | – |
